Assay results taken from patent US20120065153A1, “AZASUGAR DERIVATIVES, HEPARANASE INHIBITORS, METHOD FOR PREPARING SAME, COMPOSITIONS CONTAINING SAME, USE THEREOF” (SANOFI-AVENTIS, priority 2004, published 2012).

Experiments:
heparanase = target: T1, heparanase (Homo sapiens, UniProt Q9Y251); experiment: Heparanase inhibition in an enzymatic system (degradation of fondaparinux, read out by anti-factor Xa activity); assay type: biochemical; settings: mean±SD, done on two assays
T1 sequence (Q9Y251 36-543): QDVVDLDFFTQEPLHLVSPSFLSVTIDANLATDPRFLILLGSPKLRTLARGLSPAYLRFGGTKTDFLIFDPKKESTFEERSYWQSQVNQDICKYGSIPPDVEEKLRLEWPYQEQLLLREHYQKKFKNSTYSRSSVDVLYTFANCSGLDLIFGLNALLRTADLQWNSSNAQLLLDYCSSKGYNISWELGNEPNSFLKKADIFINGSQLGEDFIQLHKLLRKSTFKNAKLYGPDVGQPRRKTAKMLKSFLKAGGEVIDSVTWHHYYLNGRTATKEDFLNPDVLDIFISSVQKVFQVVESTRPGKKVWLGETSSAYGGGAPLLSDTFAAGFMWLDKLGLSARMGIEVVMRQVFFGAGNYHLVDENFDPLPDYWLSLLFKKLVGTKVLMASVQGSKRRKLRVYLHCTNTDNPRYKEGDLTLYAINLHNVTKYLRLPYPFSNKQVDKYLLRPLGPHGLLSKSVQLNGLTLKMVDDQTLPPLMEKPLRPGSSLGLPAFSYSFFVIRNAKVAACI
Method: The concentration of fondaparinux is determined by means of its anti-factor Xa activity.
The heparanase is produced by Sanofi-Synthelabo (Labège, France).
The reagents for assaying factor Xa are marketed by Chromogénix (Montpellier, France).
Increasing concentrations of a compound according to the invention, an inhibitor of heparanases (varying dilutions: from 1 nM to 10 μM) are mixed at a fixed heparanase concentration (for each batch, preliminary experiments make it possible to determine the enzymatic activity which is sufficient for the degradation of 0.45 μg/ml of added fondaparinux). After 5 minutes at 37° C., the mixture is exposed to fondaparinux and left for 1 hour at 37° C. The reaction is stopped by heating at 95° C. for 5 minutes. The residual fondaparinux concentration is finally measured by adding factor Xa and its specific chromogenic substrate (Ref. S2222).
The various mixtures are produced according to the following procedure:
50 μl of sodium acetate buffer (0.2 M, pH 4.2) are mixed with 50 μl of fondaparinux (0.45 μg/ml) and 59 μl of a heparanase solution. The mixture is incubated for 1 hour at 37° C. and then for 5 minutes at 95° C. […]
The anti-factor Xa activity of fondaparinux is measured in the following manner: […]
The optical density is read at 405 nm.
A percentage inhibition is determined relative to control without inhibitor. […]

HT1080 tumour cells = experiment: Invasion of HT1080 tumour cells through Matrigel (cell invasion test); assay type: cell-based, human
Method: The effect of the compounds of formula (I), inhibitors of heparanases, was tested in vitro on the invasion of HT1080 tumour cells.
The cells derived from human fibrosarcomas, HT1080 (ATCC CCL-121) are cultured in a DMEM medium (Ref.: GIBCO 11960-044) containing 5% Foetal Calf Serum, glutamine (2 mM) (Ref.: GIBCO 25030-024), sodium pyruvate (1 mM) (Ref.: GIBCO 11360-039) and nonessential amino acids (1×) (Ref.: GIBCO 11140-035), on collagen coated flasks (Becton Dickinson 75 cm^2; Ref. 354523), to 50 to 80% confluence.
The measurements of invasion of the HT1080 cells are carried out on a Becton Dickinson falcon HTS Fluoroblock Multiwell Insert System kit in 24-well plates (Ref.: 351158). These measurement chambers give the cells the conditions which make it possible to evaluate their invasive properties in vitro.
The kit is composed of a plate combined with culture inserts containing a PET membrane pierced with 8 micron pores on which a uniform Matrigel Matrix (Becton Dickinson; Ref. 354230) layer is deposited.
Matrigel is a soluble basal membrane extracted from the EHS (Engelbreth-Holm-Swarm) tumour which, by virtue of its composition, forms, upon solidifying, a structure equivalent to a basal membrane.
The Matrigel layer blocks the pores of the membrane, thus blocking the migration of the noninvasive cells across the membrane. By contrast, the invasive (tumour or nontumour) cells will be capable of becoming detached and of invading the Matrigel layer before migrating across the membrane.
The quantification of the cell migration is carried out by labelling with calcein AM (Molecular Probes C-3100). The fluorescent signal emitted is measured with the aid of a Perkin Elmer Wallac VICTOR 3 reader and may be directly correlated with the number of cells which have invaded the Matrigel gel. By comparing them with controls made in the same experiment as the products studied (response in the presence of 0% and 5% foetal calf serum), it is possible to determine a percentage inhibition of cell invasion in the presence of the products.

IC50 (heparanase) [nM] | Structure (SMILES) | inhibition of cell invasion (HT1080 tumour cells; 0.3 μM) [%] | inhibition of cell invasion (HT1080 tumour cells; 1 μM) [%] | inhibition of cell invasion (HT1080 tumour cells; 10 μM, four independent determinations, mean±standard deviation) [%] | effect on cell invasion as a function of dose (HT1080 tumour cells; HT1080 cells)
11 ± 4 | O=C(O)[C@H]1CNC[C@@H](O)[C@@H]1O[C@H]1O[C@H](COS(=O)(=O)O)[C@@H](O[C@@H]2O[C@@H](C(=O)O)[C@@H](O[C@H]3O[C@H](COS(=O)(=O)O)[C@@H](O[C@@H]4O[C@@H](C(=O)O)[C@@H](OS(=O)(=O)O)[C@H](O)[C@H]4OS(=O)(=O)O)[C@H](O)[C@H]3NS(=O)(=O)O)[C@H](O)[C@H]2OS(=O)(=O)O)[C@H](O)[C@H]1NS(=O)(=O)O [compound No. 27, (2,4-di-O-sodium sulphonato-α-L-idopyranosyluronate of sodium)-(1-4)-(2-N-sodiumsulphonato-2-deoxy-6-O-sodiumsulphonato-α-D-glucopyranosyl)-(1-4)-(2-O-sodiumsulphonato-α-L-idopyranosyluronate of sodium)-(1-4)-(2-N-sodiumsulphonato-2-deoxy-6-O-sodiumsulphonato-α-D-glucopyranosyl)-(1-4)-(5-(hydroxy)-4-oxypiperidine-3-carboxylate of sodium (3S,4R,5R))] | – | – | – | –
– | CC(=O)N[C@H]1[C@@H](O[C@H]2[C@H](O)CNC[C@@H]2C(=O)O)O[C@H](COS(=O)(=O)O)[C@@H](O[C@@H]2O[C@@H](C(=O)O)[C@@H](O[C@H]3O[C@H](COS(=O)(=O)O)[C@@H](O[C@@H]4O[C@@H](C(=O)O)[C@@H](OS(=O)(=O)O)[C@H](O)[C@H]4OS(=O)(=O)O)[C@H](O)[C@H]3NC(C)=O)[C@H](O)[C@H]2OS(=O)(=O)O)[C@@H]1O.[Na+].[Na+].[Na+].[Na+].[Na+].[Na+].[Na+].[Na+] [compound No. 20, (2,4-di-O-sodium sulphonato-α-L-idopyranosyluronate of sodium)-(1-4)-(2-acetamido-2-deoxy-6-O-sodiumsulphonato-α-D-glucopyranosyl)-(1-4)-(2-O-sodiumsulphonato-α-L-idopyranosyluronate of sodium)-(1-4)-(2-acetamido-2-deoxy-6-O-sodiumsulphonato-α-D-glucopyranosyl)-(1-4)-(5-(hydroxy)-4-oxypiperidine-3-carboxylate of sodium (3S,4R,5R))] | 26±3 | 53±11 | 40.3±8.3 | dose-dependent effect
